Experiment [1] deals with T1, Dual specificity tyrosine-phosphorylation-regulated kinase 1A (Homo sapiens, UniProt Q13627). Kind of experiment: Inhibition of EGFP-tagged DYRK1A (unknown origin) expressed in human NCI-H1299 cells expressing FLAG-tagged tau assessed as reduction in tau T212 phosphorylation at 1 to 10 uM incubated for 2 hrs by Western blot analysis. Format: cell-based. A general note: Immunoblotting shows a protein as a band on a membrane.

Experiment [2] has as its target T1, Dual specificity tyrosine-phosphorylation-regulated kinase 1A. Put plainly: Inhibition of human DYRK1A expressed in HEK293 cells assessed as compound concentration causing 1.5 fold […] by NFAT response element-driven luciferase reporter gene assay relative to basal level. The format is cell-based. Background: In a reporter assay the amount or activity of a reporter protein is the signal.

For experiment [3] the target is unchanged. Put plainly: Inhibition of DYRK1A (unknown origin) using DYRKtide as substrate by ATP regenerative NADH consuming assay. The settings on record: for pIC50: read-out: IC50; for pKi: read-out: Ki.
The target is the same in experiment [4]. Kind of experiment: Inhibition of DYRK1A (unknown origin) assessed as remaining enzyme activity at 20 uM using DYRKtide as substrate by ATP regenerative NADH consuming assay.
The target of experiment [5] is Phosphatidylinositol 4,5-bisphosphate 3-kinase catalytic subunit gamma isoform (Homo sapiens) (UniProt P48736). Kind of experiment: Inhibition of human PIK3CG expressed in mammalian expression system at 1 uM.
Experiment [6] deals with Glycogen synthase kinase-3 beta (Homo sapiens) (UniProt P49841). Put plainly: Inhibition of human GSK3beta expressed in mammalian expression system at 1 uM.
The target of experiment [7] is T1, Dual specificity tyrosine-phosphorylation-regulated kinase 1A. Put plainly: Inhibition of human DYRK1A expressed in HEK293 cells assessed as […] at 0.1 uM by NFAT response element-driven luciferase reporter gene assay relative to harmine. The format is cell-based.
Experiment [8] addresses Phosphatidylinositol 4-kinase beta (Homo sapiens) (UniProt Q9UBF8). Put plainly: Inhibition of human PIK4CB expressed in mammalian expression system at 1 uM.
Experiment [9] has as its target T1, Dual specificity tyrosine-phosphorylation-regulated kinase 1A. Put plainly: Inhibition of human DYRK1A expressed in mammalian expression system at 1 uM.
Experiment [10] concerns the target Dual specificity protein kinase CLK3 (Homo sapiens) (UniProt P49761). Put plainly: Inhibition of human CLK3 expressed in bacterial expression system at 1 uM.
Experiment [11] concerns the target Glycogen synthase kinase-3 alpha (Homo sapiens) (UniProt P49840). Kind of experiment: Inhibition of human GSK3A expressed in bacterial expression system at 1 uM.
For experiment [12], the target named is Dual specificity tyrosine-phosphorylation-regulated kinase 1B (Homo sapiens) (UniProt Q9Y463). Put plainly: Inhibition of human DYRK1B expressed in bacterial expression system at 1 uM.
Experiment [13] addresses Serine/threonine-protein kinase mTOR (Homo sapiens) (UniProt P42345). Kind of experiment: Inhibition of human mTOR expressed in mammalian expression system at 10 uM.
In experiment [14] the target is Dual specificity protein kinase CLK1 (Homo sapiens) (UniProt P49759). Put plainly: Inhibition of human CLK1 expressed in bacterial expression system at 1 uM.
In experiment [15] the target is Dual specificity protein kinase CLK2 (Homo sapiens) (UniProt P49760). Kind of experiment: Inhibition of human CLK2 expressed in bacterial expression system at 10 uM.
Experiment [16] deals with Homeodomain-interacting protein kinase 2 (Homo sapiens) (UniProt Q9H2X6). Kind of experiment: Inhibition of human HIPK2 expressed in mammalian expression system at 10 uM.
In experiment [17] the target is Homeodomain-interacting protein kinase 1 (Homo sapiens) (UniProt Q86Z02). Kind of experiment: Inhibition of human HIPK1 expressed in mammalian expression system at 10 uM.
The target of experiment [18] is Glycogen synthase kinase-3 beta (Homo sapiens) (UniProt P49841). Put plainly: Inhibition of human GSK3beta expressed in mammalian expression system at 10 uM.
The target in experiment [19] is Cyclin-dependent kinase 7 (Homo sapiens) (UniProt P50613). Put plainly: Inhibition of human CDK7 expressed in mammalian expression system at 10 uM.
Experiment [20] addresses Tyrosine-protein kinase ABL1 (Homo sapiens) (UniProt P00519). Put plainly: Inhibition of human ABL1 at 10 uM.
The target in experiment [21] is Platelet-derived growth factor receptor beta (Homo sapiens) (UniProt P09619). Kind of experiment: Inhibition of human PDGFRbeta expressed in bacterial expression system at 10 uM.
In experiment [22] the target is Platelet-derived growth factor receptor alpha (Homo sapiens) (UniProt P16234). Put plainly: Inhibition of human PDGFRalpha expressed in mammalian expression system at 10 uM.
Experiment [23] has as its target T2, Serine/threonine-protein kinase 17A (Homo sapiens) (UniProt Q9UEE5).
T2 sequence (whole entry): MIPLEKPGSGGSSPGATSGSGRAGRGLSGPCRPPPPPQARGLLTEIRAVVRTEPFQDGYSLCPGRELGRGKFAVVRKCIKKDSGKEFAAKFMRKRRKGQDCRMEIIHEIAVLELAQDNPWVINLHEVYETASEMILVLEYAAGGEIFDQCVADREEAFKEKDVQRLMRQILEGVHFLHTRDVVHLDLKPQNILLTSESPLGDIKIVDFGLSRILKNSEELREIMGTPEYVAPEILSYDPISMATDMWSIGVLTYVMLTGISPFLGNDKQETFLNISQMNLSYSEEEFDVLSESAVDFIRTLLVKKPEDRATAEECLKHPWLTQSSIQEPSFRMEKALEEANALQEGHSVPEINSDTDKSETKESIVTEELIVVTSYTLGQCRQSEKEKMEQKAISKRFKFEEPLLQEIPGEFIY
Kind of experiment: Inhibition of human DRAK1 expressed in bacterial expression system at 10 uM.

The target of experiment [24] is T3, Serine/threonine-protein kinase 17B (Homo sapiens) (UniProt O94768).
T3 sequence (whole entry): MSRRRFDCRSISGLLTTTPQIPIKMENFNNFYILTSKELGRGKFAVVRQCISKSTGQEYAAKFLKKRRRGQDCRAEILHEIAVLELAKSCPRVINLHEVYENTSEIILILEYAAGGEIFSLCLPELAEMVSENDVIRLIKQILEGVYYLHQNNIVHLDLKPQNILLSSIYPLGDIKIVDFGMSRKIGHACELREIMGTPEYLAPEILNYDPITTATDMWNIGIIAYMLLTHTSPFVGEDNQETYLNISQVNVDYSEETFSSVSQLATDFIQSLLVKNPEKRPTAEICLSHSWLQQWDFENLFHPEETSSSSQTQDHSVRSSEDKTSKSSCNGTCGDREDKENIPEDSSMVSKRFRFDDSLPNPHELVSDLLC
Put plainly: Inhibition of human DRAK2 expressed in bacterial expression system at 10 uM.

For experiment [25], the target named is T1, Dual specificity tyrosine-phosphorylation-regulated kinase 1A. Kind of experiment: Inhibition of human DYRK1A expressed in HEK293 cells assessed as […] at 1 uM by NFAT response element-driven luciferase reporter gene assay relative to harmine. The format is cell-based.
Experiment [26] has as its target Mitogen-activated protein kinase 7 (Homo sapiens) (UniProt Q13164). Put plainly: Inhibition of human ERK5 expressed in bacterial expression system at 10 uM.

pIC50, pKi: −log10 of the molar value. Active and inactive are the calls of the source. The calls are words filed in the database; no cut-off is given here.

The record followed here is ChEMBL document CHEMBL4145687, “Novel Scaffolds for Dual Specificity Tyrosine-Phosphorylation-Regulated Kinase (DYRK1A) Inhibitors” (J Med Chem, 2018).

Dual specificity protein kinase CLK2 (Homo sapiens), sequence (P49760 whole entry, looked up): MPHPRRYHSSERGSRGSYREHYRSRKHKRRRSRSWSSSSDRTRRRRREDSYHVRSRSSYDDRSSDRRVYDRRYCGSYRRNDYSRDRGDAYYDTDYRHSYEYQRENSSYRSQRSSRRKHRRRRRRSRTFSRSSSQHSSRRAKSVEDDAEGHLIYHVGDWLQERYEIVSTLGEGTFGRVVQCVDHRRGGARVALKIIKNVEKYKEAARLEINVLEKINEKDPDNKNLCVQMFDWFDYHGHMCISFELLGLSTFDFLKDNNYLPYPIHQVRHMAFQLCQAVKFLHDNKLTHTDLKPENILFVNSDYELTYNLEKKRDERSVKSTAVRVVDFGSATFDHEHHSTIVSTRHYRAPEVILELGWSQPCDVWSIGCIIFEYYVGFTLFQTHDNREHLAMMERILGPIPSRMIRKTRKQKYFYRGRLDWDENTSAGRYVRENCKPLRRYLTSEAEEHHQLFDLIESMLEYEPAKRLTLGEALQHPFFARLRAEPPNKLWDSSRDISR
Glycogen synthase kinase-3 beta (Homo sapiens), sequence (P49841 whole entry, looked up): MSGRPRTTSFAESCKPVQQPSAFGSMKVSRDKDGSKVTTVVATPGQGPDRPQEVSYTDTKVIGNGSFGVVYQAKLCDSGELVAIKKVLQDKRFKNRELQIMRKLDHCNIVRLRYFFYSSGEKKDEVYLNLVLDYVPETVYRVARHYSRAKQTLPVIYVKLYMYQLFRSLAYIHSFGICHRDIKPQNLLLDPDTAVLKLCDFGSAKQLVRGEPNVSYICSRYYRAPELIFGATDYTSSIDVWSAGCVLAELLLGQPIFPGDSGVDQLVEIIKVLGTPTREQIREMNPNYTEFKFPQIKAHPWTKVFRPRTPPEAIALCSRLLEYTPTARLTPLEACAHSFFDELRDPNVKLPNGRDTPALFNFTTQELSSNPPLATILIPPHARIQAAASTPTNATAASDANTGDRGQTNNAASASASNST
Platelet-derived growth factor receptor alpha (Homo sapiens), sequence (P16234 whole entry): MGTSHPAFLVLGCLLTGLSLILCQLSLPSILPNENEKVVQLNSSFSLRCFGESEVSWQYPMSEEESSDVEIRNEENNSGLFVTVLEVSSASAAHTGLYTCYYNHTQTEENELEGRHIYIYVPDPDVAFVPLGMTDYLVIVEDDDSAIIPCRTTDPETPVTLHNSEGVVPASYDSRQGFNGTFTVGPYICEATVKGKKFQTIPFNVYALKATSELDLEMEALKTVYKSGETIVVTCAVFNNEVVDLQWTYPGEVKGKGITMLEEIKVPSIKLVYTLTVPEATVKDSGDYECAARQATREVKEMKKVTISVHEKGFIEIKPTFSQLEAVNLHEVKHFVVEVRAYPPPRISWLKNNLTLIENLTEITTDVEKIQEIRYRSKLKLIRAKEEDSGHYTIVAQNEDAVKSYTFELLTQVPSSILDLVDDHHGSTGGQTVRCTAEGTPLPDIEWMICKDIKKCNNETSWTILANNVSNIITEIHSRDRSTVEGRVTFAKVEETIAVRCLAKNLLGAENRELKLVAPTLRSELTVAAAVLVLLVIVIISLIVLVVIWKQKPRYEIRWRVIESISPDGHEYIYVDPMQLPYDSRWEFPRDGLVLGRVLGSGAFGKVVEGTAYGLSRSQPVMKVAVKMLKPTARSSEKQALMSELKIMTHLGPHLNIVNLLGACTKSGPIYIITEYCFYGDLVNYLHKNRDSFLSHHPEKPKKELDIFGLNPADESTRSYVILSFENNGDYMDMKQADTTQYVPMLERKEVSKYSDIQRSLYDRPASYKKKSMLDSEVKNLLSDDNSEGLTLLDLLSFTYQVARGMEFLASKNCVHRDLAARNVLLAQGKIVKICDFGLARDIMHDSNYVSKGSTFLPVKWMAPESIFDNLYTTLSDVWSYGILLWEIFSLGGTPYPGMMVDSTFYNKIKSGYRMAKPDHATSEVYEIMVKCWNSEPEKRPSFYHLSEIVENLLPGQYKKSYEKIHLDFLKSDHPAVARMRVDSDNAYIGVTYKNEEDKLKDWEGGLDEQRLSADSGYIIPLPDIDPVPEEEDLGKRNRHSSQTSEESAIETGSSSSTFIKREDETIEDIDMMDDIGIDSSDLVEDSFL
Phosphatidylinositol 4,5-bisphosphate 3-kinase catalytic subunit gamma isoform (Homo sapiens), sequence (P48736 whole entry, looked up, canonical isoform): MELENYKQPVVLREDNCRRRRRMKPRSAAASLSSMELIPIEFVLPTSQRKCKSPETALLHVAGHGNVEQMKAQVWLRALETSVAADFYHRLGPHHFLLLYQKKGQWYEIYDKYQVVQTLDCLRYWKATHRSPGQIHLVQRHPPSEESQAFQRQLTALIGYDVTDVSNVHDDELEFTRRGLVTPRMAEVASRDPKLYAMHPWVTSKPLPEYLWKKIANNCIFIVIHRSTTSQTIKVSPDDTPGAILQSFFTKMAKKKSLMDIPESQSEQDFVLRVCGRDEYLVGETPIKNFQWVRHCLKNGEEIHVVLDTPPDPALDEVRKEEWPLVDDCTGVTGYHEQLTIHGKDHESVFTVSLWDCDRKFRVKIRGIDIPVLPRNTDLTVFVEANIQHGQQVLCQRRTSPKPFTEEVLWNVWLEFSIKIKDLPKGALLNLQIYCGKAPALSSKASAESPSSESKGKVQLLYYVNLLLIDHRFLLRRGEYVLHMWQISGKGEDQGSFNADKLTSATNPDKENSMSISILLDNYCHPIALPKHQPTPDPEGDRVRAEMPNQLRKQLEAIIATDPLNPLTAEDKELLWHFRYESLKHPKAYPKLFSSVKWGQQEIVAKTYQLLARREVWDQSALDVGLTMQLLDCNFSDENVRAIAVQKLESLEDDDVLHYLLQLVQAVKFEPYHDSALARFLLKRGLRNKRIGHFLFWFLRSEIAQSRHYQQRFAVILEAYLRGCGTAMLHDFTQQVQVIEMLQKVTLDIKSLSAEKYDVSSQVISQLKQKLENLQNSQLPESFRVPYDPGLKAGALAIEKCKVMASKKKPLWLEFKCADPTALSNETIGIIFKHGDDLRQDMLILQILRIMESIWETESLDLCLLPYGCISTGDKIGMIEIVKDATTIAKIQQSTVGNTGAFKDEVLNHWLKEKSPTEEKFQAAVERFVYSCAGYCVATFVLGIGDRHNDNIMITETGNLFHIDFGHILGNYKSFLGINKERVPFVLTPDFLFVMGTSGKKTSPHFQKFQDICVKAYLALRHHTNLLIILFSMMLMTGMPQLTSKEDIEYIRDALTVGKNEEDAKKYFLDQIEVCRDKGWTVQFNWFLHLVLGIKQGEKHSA
Mitogen-activated protein kinase 7 (Homo sapiens), sequence (Q13164 2-816 limits assumed): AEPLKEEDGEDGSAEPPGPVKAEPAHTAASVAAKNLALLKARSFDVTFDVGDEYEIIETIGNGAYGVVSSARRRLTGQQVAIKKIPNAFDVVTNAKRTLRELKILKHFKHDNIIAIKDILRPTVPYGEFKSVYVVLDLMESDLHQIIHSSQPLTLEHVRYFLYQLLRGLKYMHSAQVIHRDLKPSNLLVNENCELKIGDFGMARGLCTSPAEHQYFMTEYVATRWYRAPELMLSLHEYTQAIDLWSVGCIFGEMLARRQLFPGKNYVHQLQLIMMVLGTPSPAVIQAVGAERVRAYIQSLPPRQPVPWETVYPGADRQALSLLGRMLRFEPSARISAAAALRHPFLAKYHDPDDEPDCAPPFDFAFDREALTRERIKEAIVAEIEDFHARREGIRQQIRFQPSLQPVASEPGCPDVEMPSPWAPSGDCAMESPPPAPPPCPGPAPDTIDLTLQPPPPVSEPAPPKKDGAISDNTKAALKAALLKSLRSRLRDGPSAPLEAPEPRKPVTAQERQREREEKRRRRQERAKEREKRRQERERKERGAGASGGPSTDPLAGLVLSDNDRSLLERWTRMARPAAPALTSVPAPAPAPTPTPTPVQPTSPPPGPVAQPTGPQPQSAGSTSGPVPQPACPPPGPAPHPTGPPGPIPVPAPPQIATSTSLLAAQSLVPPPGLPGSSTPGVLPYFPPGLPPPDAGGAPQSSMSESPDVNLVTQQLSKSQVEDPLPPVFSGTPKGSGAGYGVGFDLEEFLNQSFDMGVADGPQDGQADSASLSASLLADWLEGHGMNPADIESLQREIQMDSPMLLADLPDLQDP
Tyrosine-protein kinase ABL1 (Homo sapiens), sequence (P00519 whole entry): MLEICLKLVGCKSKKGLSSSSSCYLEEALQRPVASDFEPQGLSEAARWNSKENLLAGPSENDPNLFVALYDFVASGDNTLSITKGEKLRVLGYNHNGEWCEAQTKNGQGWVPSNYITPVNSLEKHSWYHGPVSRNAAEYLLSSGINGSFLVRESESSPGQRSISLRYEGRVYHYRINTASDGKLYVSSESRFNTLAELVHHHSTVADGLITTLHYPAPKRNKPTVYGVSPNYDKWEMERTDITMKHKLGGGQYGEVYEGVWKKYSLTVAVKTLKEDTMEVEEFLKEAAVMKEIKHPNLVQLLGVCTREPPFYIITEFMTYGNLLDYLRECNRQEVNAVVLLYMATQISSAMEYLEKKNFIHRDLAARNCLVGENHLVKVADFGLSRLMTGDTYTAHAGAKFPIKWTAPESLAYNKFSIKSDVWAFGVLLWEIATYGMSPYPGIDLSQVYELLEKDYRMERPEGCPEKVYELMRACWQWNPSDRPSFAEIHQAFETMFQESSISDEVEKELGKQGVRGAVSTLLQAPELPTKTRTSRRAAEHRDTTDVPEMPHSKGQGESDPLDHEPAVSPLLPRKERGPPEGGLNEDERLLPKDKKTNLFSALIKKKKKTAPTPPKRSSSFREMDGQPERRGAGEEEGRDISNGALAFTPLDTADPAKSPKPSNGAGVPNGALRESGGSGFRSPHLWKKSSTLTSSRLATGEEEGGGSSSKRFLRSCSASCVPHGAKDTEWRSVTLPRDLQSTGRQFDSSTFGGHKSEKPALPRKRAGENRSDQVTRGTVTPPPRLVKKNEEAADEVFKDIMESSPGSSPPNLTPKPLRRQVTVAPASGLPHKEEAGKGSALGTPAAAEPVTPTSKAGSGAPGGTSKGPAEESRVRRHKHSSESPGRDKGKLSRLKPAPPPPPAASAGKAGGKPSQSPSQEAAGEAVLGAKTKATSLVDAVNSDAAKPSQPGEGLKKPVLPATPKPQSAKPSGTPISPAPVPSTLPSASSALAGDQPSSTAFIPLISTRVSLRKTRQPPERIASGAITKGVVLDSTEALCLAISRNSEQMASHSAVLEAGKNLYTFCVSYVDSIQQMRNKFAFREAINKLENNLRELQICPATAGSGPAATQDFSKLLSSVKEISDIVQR

On to `NS(=O)(=O)c1ccc(-c2cnc3[nH]cc(-c4cccnc4)c3c2)cc1`, for which the inhibition entry in experiment [1] was “Dose-dependent effect”. Moreover, in experiment [2], the Activity lay within 1 to 5 µM and the inhibition result is “Dose-dependent effect”. In [3], the pIC50 is 6.67 and the pKi is 6.98. Further, the Activity in experiment [4] worked out at 0%.
Regarding `O=c1ccc2cnc3ccc(-c4cn[nH]c4)cc3c2n1-c1ccc(F)cc1C(F)(F)F`, the inhibition result in experiment [5], in experiment [6], in experiment [8], in [9], in experiment [10] and in experiment [1] was “Active” in each case. The inhibition result in experiment [11], in experiment [12], in experiment [13] and in [14] was “Active” each time. Besides, the fold change (FC) in experiment [7] came to 2. Besides, the Activity in experiment [2] was 0.05 to 0.1 µM; in experiment [4], 2%. Further, in [3], the pIC50 is 6.27. In addition, the pKi in experiment [3] was 6.60.
On to `Nc1cccc(-c2cnc3[nH]cc(-c4cccnc4)c3c2)c1`, for which the inhibition result in experiment [1] was “Dose-dependent effect”. Besides, the Activity in experiment [2] was in the range of 5 to 10 µM. For the same compound, in experiment [3], the pIC50 was 6.48 and the pKi was 6.80. Also, the Activity in experiment [4] is 0%.
As to `C=CC(=O)Nc1ccc(C(=O)c2sc(Nc3ccc(N4CCN(C)CC4)cc3OC)nc2N)cc1`, in [15], the inhibition result is “Active”. Also, the inhibition entry in experiment [1] is “Dose-dependent effect”. Besides, the outcome in experiment [2] was inactive. Also, in [3], the pIC50 was 5.92 and the negative logarithm of the Ki (pKi) is 6.24. For the same compound, the Activity in experiment [4] is 4%.
`COc1ccc(N)cc1-c1cnc(N)c(C(=O)c2cccnc2)n1`: the inhibition entry in experiment [16], in experiment [15], in [17], in experiment [1], in experiment [18] and in experiment [19] was “Active” each time. Moreover, the Activity in [2] was 5 to 10 µM; in [4] it was 24%. In addition, in experiment [3], the pIC50 was below 5.22. In [3], the pKi was below 5.55.
As for `C=CC(=O)Nc1cccc(C(=O)c2sc(Nc3ccc(N4CCN(C)CC4)cc3)nc2N)c1`, the inhibition entry in [15] and in experiment [1] was “Active” each time. Also, the IC50 entry in experiment [3] is reported as “Nd(Insoluble)”. In addition, the Ki result in experiment [3] is reported as “Nd(Insoluble)”.
Turning to `O=C(NCCN1CCOCC1)Nc1cccc(-c2ccc3nc(NC(=O)C4CC4)sc3n2)c1`, the inhibition entry in [15], in experiment [20], in [1], in experiment [21] and in experiment [22] was “Active” in each case. Moreover, the Activity in experiment [2] was above 20 µM; in experiment [4], 11%. Also, the pIC50 in experiment [3] is 5.46. Also, in experiment [3], the negative-log Ki (pKi) was 5.77.
Turning to `COc1cc(N2CCN(C)CC2)ccc1Nc1nc(N)c(C(=O)c2ccccc2)s1`, the inhibition entry in experiment [1] was “Dose-dependent effect”. Moreover, the Activity in experiment [2] fell in the range of 10 to 20 µM. In experiment [3], the pIC50 is 6.10 and the pKi was 6.42. In experiment [4], the Activity was determined as 1.3%.
Turning to `CN1C(=O)[C@H]2CCC[C@H]2N(C2CCCC2)c2nc(Nc3ccc(C(N)=O)cc3)ncc21`, the inhibition result in experiment [23], in [24], in [1] and in [26] was “Active” in each case. The fold change (FC) in [25] was 2. Moreover, the figures for the Activity in [2] and in [4] were 0.5 to 1 µM and 15%, respectively. Also, the pIC50 in [3] is 5.38. In addition, the pKi in experiment [3] was 5.70.

As usually defined, the pIC50 is the negative decadic logarithm of the IC50, by convention in mol/L. Usually pKi stands for the Ki on a negative log10 scale, so that one unit is a factor of ten.
